Measurements from patent US20070243576A1, “Method to confirm immunosuppression in human patients by measuring lymphocyte activation” (priority 2001, published 2007).

How the values were obtained:
[1] = tested on: T-lymphocytes in whole blood; type: cell-based, human
[2] = tested on: T-Lymphocytes (CD4 subset) in whole blood; type: cell-based, human
[3] = tested on: T lymphocytes (CD4 subset) in whole blood; assay: Whole blood ATP response after stimulation with PHA, 2-24 hr (Example 2); type: cell-based, human; settings: PHA 1%
Procedure: Aliquots of the blood were diluted 1:10 in RPMI 1640. Replicates received either no addition or the mitogen PHA at 1% final concentration. Samples were incubated at 37° C. […] The cells and beads were placed next to a permanent magnet positioned such that the magnetic field was in a direction perpendicular to gravity. […] Assay Reagent (luciferin/luciferase) was added to the samples ATP production was determined as described above. […] The response is clearly evident at 4 hours of incubation, peaks at 8 hours, and remains high at 24 hrs post stimulation.

[4] = tested on: T-Lymphocytes (CD4 subset) in whole blood; assay: T-lymphocyte ATP response to PHA in normal and HIV infected donors (Example 4); settings: PHA 10 ug/mL, overnight incubation, anti-CD4 beads

Row | Substance | increase in ATP over background [1] | increase in ATP over background [2] | time within which activation of the T lymphocyte subset is detected [2] [h] | increase in ATP over background ([3]; all time points (2, 4, 6, 8, 24 hr)) | time of peak ATP response ([3]; time course 2-24 hr) [h] | ATP response to PHA, HIV+ population versus normal donors [4]
1 | Tetanus Toxoid | increase in ATP over background | significant | ≤ 5 | – | – | –
2 | Phytohemagglutinin [PHA] | – | statistically significant increase | ≤ 0.5 | increase in ATP over background | 8 | lower than the normal donor population
